Measurements from paper PMC4393326, “The natural product brartemicin is a high affinity ligand for the carbohydrate-recognition domain of the macrophage receptor mincle” (Medchemcomm, 2015).

Tests used:
[1] = tested on: cancer cells; details: cited from earlier work
[2] = biological target: T1, CRD from bovine mincle (Bos taurus, UniProt E1BHM0); assay: Competition binding assay: inhibition of radioiodinated Man31-bovine serum albumin binding to immobilized biotin-tagged CRD; details: for Reduction in binding affinity compared to brartemicin / Rel. affinity (affinity relative to α,α-trehalose): bovine mincle CRD; for Rel. affinity (affinity relative to α,α-trehalose): α,α-trehalose = 1; for Ki: inhibition of mannose-conjugated serum albumin binding to bovine mincle CRD, average ± s.d. for three independent experiments
T1 construct: A biotin-tagged version of the CRD from bovine mincle was prepared in a bacterial expression system; made in house; host or cells: bacterial expression system
T1 sequence (E1BHM0 78-211 limits assumed): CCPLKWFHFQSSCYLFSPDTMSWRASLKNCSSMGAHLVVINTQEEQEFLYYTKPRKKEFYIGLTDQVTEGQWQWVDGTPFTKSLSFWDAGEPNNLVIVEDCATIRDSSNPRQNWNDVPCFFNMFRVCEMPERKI
Experimental: The collection of compounds was tested in competition binding experiments with immobilized bovine mincle CRD[8] (Fig. 3a).
Fig. 3 a) Data for inhibition of mannose-conjugated serum albumin binding to the CRD from bovine mincle by brartemicin and analogs. K I-values (average ± s.d. for three independent experiments) and affinities relative to α,α-trehalose. b) Top view and c) side view of highest scoring docking pose of brartemicin with bovine mincle. The Ca^2+ is coloured magenta. TEXT PRINTED IN THE PICTURE: (a) brartemicin: Ki (μM): 5.5 ± 0.9; Rel. affinity: 290 | (a) 2: Ki (μM): 5.4 ± 0.3; Rel. affinity: 300 | (a) 3: Ki (μM): 11.3 ± 0.9; Rel. affinity: 140 | (a) 4: Ki (μM): 164 ± 13; Rel. affinity: 9.8 | (a) epi-brartemicin: Ki (μM): 440 ± 70; Rel. affinity: 3.6 | (a) α,α-trehalose: Ki (μM): 1620 ± 70; Rel. affinity: 1
(§1) A biotin-tagged version of the CRD from bovine mincle was prepared in a bacterial expression system as previously described.[8] An equivalent fragment of human mincle was generated using an analogous system.[9] Binding competition assays, based on inhibition of binding of radioiodinated Man31-bovine serum albumin to the biotin-tagged CRDs immobilized on streptavidin-coated plates, were performed as previously described.[8] Results are reported as average ± standard deviation for at least 3 independent experiments, each performed in duplicate.

[3] = biological target: T2, CRD of human mincle (Homo sapiens, UniProt Q9ULY5); assay: Competition binding assay with immobilized CRD of human mincle; details: Fig. S1
T2 construct: made in house; host or cells: bacterial expression system (analogous to the bovine one)
T2 sequence (Q9ULY5 87-206 limits assumed): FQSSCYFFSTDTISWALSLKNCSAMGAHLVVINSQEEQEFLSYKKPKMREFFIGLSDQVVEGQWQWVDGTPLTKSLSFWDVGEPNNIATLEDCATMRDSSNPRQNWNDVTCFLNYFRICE
Experimental: as §1

[4] = Solubility in aqueous media; format: physicochemical

Structure (SMILES)	Reduction in binding affinity compared to brartemicin [2]	Rel. affinity (affinity relative to α,α-trehalose) [2]	Ki [2]	Binding to CRD of human mincle [3]	Solubility in aqueous media [4]	Anti-invasive activity on cancer cells [1]	Block of matrigel-invasion of cancer cells [1]
COc1cccc(C(=O)OC[C@H]2O[C@H](O[C@H]3O[C@H](COC(=O)c4cccc(OC)c4OC)[C@@H](O)[C@H](O)[C@H]3O)[C@H](O)[C@@H](O)[C@@H]2O)c1OC [compound 2]	equipotent	300 fold	5.4 ± 0.3 µM	–	–	in the same range as brartemicin	–
Cc1cc(O)cc(O)c1C(=O)OC[C@H]1O[C@H](O[C@H]2O[C@H](COC(=O)c3c(C)cc(O)cc3O)[C@@H](O)[C@H](O)[C@H]2O)[C@H](O)[C@@H](O)[C@@H]1O [brartemicin, 6,6′-Bis-(2,4-dihydroxy-6-methylbenzoate)-α,α-trehalose]	–	–	5.5 ± 0.9 µM	binds with high affinity	soluble at millimolar concentrations	–	block matrigel-invasion of cancer cells
Cc1cc(O)cc(O)c1C(=O)OC[C@H]1O[C@@H](O[C@H]2O[C@H](COC(=O)c3c(C)cc(O)cc3O)[C@@H](O)[C@H](O)[C@H]2O)[C@H](O)[C@@H](O)[C@@H]1O [epi-brartemicin, 6,6′-Bis-(2,4-dihydroxy-6-methylbenzoate)-α,β-trehalose]	~100 fold	3.6 fold	440 ± 70 µM	–	–	–	–

Now from value to compound, other results behind:

Reduction in binding affinity compared to brartemicin [2]	Rel. affinity (affinity relative to α,α-trehalose) [2]	Ki [2]	Binding to CRD of human mincle [3]	Solubility in aqueous media [4]	Structure (SMILES)	Anti-invasive activity on cancer cells [1]	Block of matrigel-invasion of cancer cells [1]
two-fold	140 fold	11.3 ± 0.9 µM	–	–	O=C(OC[C@H]1O[C@H](O[C@H]2O[C@H](COC(=O)c3ccccc3)[C@@H](O)[C@H](O)[C@H]2O)[C@H](O)[C@@H](O)[C@@H]1O)c1ccccc1 [compound 3]	in the same range as brartemicin	–
–	1 fold	1620 ± 70 µM	–	–	OC[C@H]1O[C@H](O[C@H]2O[C@H](CO)[C@@H](O)[C@H](O)[C@H]2O)[C@H](O)[C@@H](O)[C@@H]1O [α,α-trehalose, reference compound]	–	–
roughly 30 fold	9.8 fold	164 ± 13 µM	–	–	Cc1cc(O)cc(O)c1C(=O)OC[C@H]1O[C@H](O[C@H]2O[C@H](CO)[C@@H](O)[C@H](O)[C@H]2O)[C@H](O)[C@@H](O)[C@@H]1O [compound 4]	–	–
